According to PubChem BioAssay (NCI):
Several values for one entry are separate records, joined by “and”; a condition that tells them apart may be missing. Identical values can stand only once.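 Cells were grown in 96-well plates and exposed to each compound for 48 hours at five concentrations; endpoints were interpolated linearly between bracketing concentrations, or set to the highest concentration if not reached. GI50 = concentration required for 50% inhibition of growth. TGI marks complete inhibition of growth.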

Legend:
Experiment in all cases: inhibition of tumour cell growth, NCI panel, 48 h
SK-OV-3 ovarian = test system: SK-OV-3 ovarian
UO-31 renal = test system: UO-31 renal
SNB-19 CNS = test system: SNB-19 CNS
HCT-116 colon = test system: HCT-116 colon
SW-620 colon = test system: SW-620 colon
NCI-H522 lung = test system: NCI-H522 lung
NCI-H23 lung = test system: NCI-H23 lung
SK-MEL-28 melanoma = test system: SK-MEL-28 melanoma
CCRF-CEM leukemia = test system: CCRF-CEM leukemia
MDA-MB-435 = test system: MDA-MB-435

Compound | GI50 (SK-OV-3 ovarian) [µM] | TGI (SK-OV-3 ovarian) [µM] | GI50 (UO-31 renal) [µM] | TGI (UO-31 renal) | GI50 (SNB-19 CNS) [µM] | TGI (SNB-19 CNS) [µM] | GI50 (HCT-116 colon) [µM] | TGI (HCT-116 colon) [µM] | GI50 (SW-620 colon) [µM] | TGI (SW-620 colon) [µM] | GI50 (NCI-H522 lung) [µM] | TGI (NCI-H522 lung) [µM] | GI50 (NCI-H23 lung) [µM] | TGI (NCI-H23 lung) [µM] | GI50 (SK-MEL-28 melanoma) [µM] | TGI (SK-MEL-28 melanoma) [µM] | TGI (CCRF-CEM leukemia) | GI50 (CCRF-CEM leukemia) [µM] | GI50 (MDA-MB-435) [µM] | TGI (MDA-MB-435) [µM]
CC(=O)OC(C(=O)[O][Ge]([CH3])([CH3])[CH3])c1ccccc1 (stereo unspecified) | > 100 | > 100 | > 100 | > 100 µM | > 100 | > 100 | > 100 | > 100 | > 100 | > 100 | > 100 | > 100 | > 100 | > 100 | > 100 | > 100 | – | – | – | –
CCOC(=O)CCc1c(C)c2c(OC)cc(OC)cc2oc1=O | – | – | – | > 100 µM | – | > 100 | – | > 100 | – | > 100 | – | > 100 | – | > 100 | – | > 100 | – | – | – | –
C/C=C1\Oc2ccc(OC)cc2S1(=O)=O | – | > 100 | – | > 100 µM | – | > 100 | – | > 100 | – | > 100 | – | > 100 | – | > 100 | – | > 100 | > 100 µM | – | – | –
CCCCCOC(=O)Nc1nc(=O)n(C2OC(C)C(O)C2O)cc1F (stereo unspecified) | > 10000 | > 10000 | > 10000 | > 10000 µM | > 10000 | > 10000 | > 10000 | > 10000 | > 10000 | > 10000 | > 10000 | > 10000 | – | – | > 10000 | > 10000 | > 10000 µM | > 10000 | > 10000 | > 10000
Cc1ccc2ncnc(N(C)C3CCCCC3)c2c1 | 33.2 | > 100 | 24.5 | > 100 µM | 59.5 | > 100 | 36.7 | > 100 | – | – | 39 | > 100 | 26.5 | 74.4 | 40 | > 100 | > 100 µM | 34.7 | 23 | 68.2
COC(=O)C1C(C(=O)O)C2(c3ccccc3)C(=O)C1(c1ccccc1)C(c1ccc(OC)cc1)=C2c1ccc(OC)cc1 (stereo unspecified) | 25.3 | 59.4 | 25.8 | 75 µM | 22.4 | 77.3 | 17.3 | 33.6 | 23.2 | 46.6 | 17 | 41.9 | 17.5 | 33.7 | – | – | 38.5 µM | 13.2 | 28.8 | 60.7
CCCCCCCCCCCCC(O)C1CCC(C(O)CCCCC(O)CCCCCC2CC(CC(C)=O)C(=O)O2)O1 (stereo unspecified) | – | 26 | 1.06 | 3.81 µM and 14 µM | – | 15.3 | 1.93 | 14.8 | 3.29 | 25.4 | – | 19.9 | – | 13.6 | 2.85 | 14 | 5.6 µM and 8.12 µM | – | – | –
CC(=O)OC(COc1ccc2c(c1)[n+]([O-])nc(N)[n+]2[O-])CN1CCCCC1 (stereo unspecified) | – | – | – | > 100 µM | – | > 100 | – | 59.2 | – | > 100 | – | 38.7 | – | 47.9 | – | > 100 | 79.3 µM | – | – | > 100
COc1ccc(OC(=O)N2C/C(=C\c3ccccc3)C(=O)/C(=C/c3ccccc3)C2)cc1 | – | 24.9 | – | 23.6 µM | – | 16.6 | – | 1.19 | – | 2.89 | – | 5.23 | – | 17.1 | – | 4.97 | 6.73 µM | – | – | –
O=C(c1ccccc1)n1cc(/C=C/[N+](=O)[O-])c2ccccc21 | – | > 100 | – | 66.1 µM | – | 92.3 | – | 32 | – | 38.1 | – | 28.8 | – | 37.6 | – | 33.6 | 35.1 µM | – | – | –
COc1ccc2c(c1)OCC1c3cc(OC)c4ccccc4c3OC21 (stereo unspecified) | 15.9 | > 100 | 22.2 | > 100 µM | 23.9 | > 100 | 6.65 | > 100 | 3.98 | > 100 | – | – | 4.88 | 43.2 | 9.13 | > 100 | > 100 µM | 16.2 | 2.56 | 7.46
O=c1cccccc1[O-].O=c1cccccc1[O-].O=c1cccccc1[O-].[Nd+3] | – | > 100 | – | > 100 µM | – | > 100 | – | 68.4 | – | > 100 | – | 74.4 | – | > 100 | – | – | > 100 µM | – | – | –
COc1ccccc1/C=C1\CCC(Cc2ccccc2)(CN(C)C)C1=O (stereo unspecified) | – | > 42.2 | – | > 100 µM | – | > 100 | – | 39.4 | – | 35.2 | – | 2.1 | – | > 100 | – | > 100 | 24.4 µM | – | – | –
COC(=O)c1cc(O)ccc1O | – | > 100 | – | > 100 µM | – | > 100 | – | – | – | > 100 | – | > 100 | – | – | – | > 100 | > 100 µM | – | – | –
COC(=O)C1c2cc3c(c(O)c2CCC1(C)O)C(=O)c1c(O)cc2c(c1C3=O)OC1OC2(C)C(O)C(N(C)C)C1O (stereo unspecified) | – | 15 | – | 4.62 µM | – | 1.39 | – | 24.2 | – | 1.08 | – | 2.81 | – | 1.99 | – | 15.7 | – | – | – | 2.17
O=C(CCN1CCCCC1)c1csc2ccccc12 | – | > 100 | – | > 100 µM | – | > 100 | – | > 100 | – | > 100 | – | > 100 | – | > 100 | – | > 100 | – | – | – | > 100
OC1CC(O)O[C@H](c2ccccc2)C1 (stereo partly specified) | – | – | – | > 100 µM | – | > 100 | – | > 100 | – | > 100 | – | – | – | > 100 | – | > 100 | > 100 µM | – | – | –
Nc1nc(N)c2cc(S(=O)(=O)c3ccc4ccccc4c3)ccc2n1 | – | > 81.8 | – | – | – | 63.5 | – | > 100 | 0.611 | > 100 | – | > 93 | – | > 100 | – | > 100 | > 100 µM | > 100 | – | > 100
Cc1ccccc1N(CCC#N)C1=NN(C(=O)CC(=O)Nc2ccc(Cl)cc2)C(c2ccccc2)C1 (stereo unspecified) | – | > 100 | – | > 100 µM | – | > 100 | – | > 100 | – | > 100 | – | > 100 | – | > 100 | – | > 100 | > 100 µM | – | – | –
CCCCCCCCCN=C(N)c1ccc(N2CCN(c3ccc(C(N)=NCCCCCCCCC)cc3)CC2)cc1 | 2.65 | 33.1 | 3.5 | > 50 µM | 2.29 | 15.8 | – | – | 1.52 | 3.55 | 2.36 | 21.4 | 1.67 | 6.37 | 1.6 | 4.27 | 8.34 µM | 1.77 | 1.74 | 5.35
